# Measured values from US20080293679A1, “Use of carotenoids and/or carotenoid derivatives/analogs for reduction/inhibition of certain negative effects of COX inhibitors” (priority 2005, published 2008).
# Where two headings read alike, the source gives them in different places. Marks after values point to notes of the source that are not given here.
# Key:
# [1] = Lipid peroxide (LOOH) formation in DAPC lipid vesicles with cholesterol (triiodide assay); format: biochemical
# Method: The ability of astaxanthin to block the pro-oxidant effects of rofecoxib was tested in lipid vesicles reconstituted from DAPC (10 mg/ml) in physiologic buffer (0.5 mM HEPES, 154 mM NaCl, pH=7.32). The lipid vesicles also contained cholesterol at a level that reproduced physiologic conditions (0.2 cholesterol to phospholipid mole ratio). The drug effects were tested in the vesicles following addition of astaxanthin, rofecoxib or the combination of these two agents at an identical concentration (250 nM). To measure lipid peroxide (LOOH) formation, we used an assay that measures the conversion of I2 to I3^− (triiodide). This reaction takes place in the presence of LOOH in a manner that can be measured photometrically at 365 nm, El-Saadani, 1989. […] The lipid peroxidation reaction occurs gradually under normal atmospheric oxygen conditions in a shaking water bath (37° C.).
# [2] = Lipid peroxide levels in DLPC multilamellar vesicles, C/P 0.2 (triiodide assay); format: biochemical; details: for Lipid Peroxide Levels: mean ± S.D.
# Method: The levels of lipid peroxide formation were measured photometrically at specific time points. […] Samples were prepared in a glass test tube as described in the table above. […] Sample tubes were vortexed for 3 min to form MLVs. This assay is based on the principle of the oxidative capacity of lipid peroxides to convert […], which can be measured photometrically at […] (El-Saadani et al., 1989). […] Samples were placed in a water bath set at 37° C. Samples remained in the water bath throughout the experiment except for the temporary removal for time point extractions. • 2. […] • 3. After combining sample time point aliquots with CHOD active reagent and the diffraction buffer as described in the table above, test samples were incubated about 6 hours in darkness at ambient temperature. • 4. The absorbance ([…] nm) of the samples was measured using a spectrophotometer. • 5. […] This value was determined by adding known concentrations of I2 to the CHOD reagent. A stoichiometric relationship (slope=1.02) was observed between the amount of organic peroxides assayed and the concentration of I3^- produced.
# [3] = Peroxidation study in DLPC multilamellar vesicles, C/P 0.6; format: biochemical; details: C/P 0.6, carotenoid 10 μM, 48 hour
# Method: 1. Samples were prepared in a glass test tube as described in the table above. This gives a cholesterol/DLPC mole ratio of 0.6 and a final concentration of 10 μM for the carotenoids. Equal volumes of vehicle (20 μl chloroform) were added to control samples. 2. All samples were dried down under a steady stream of nitrogen gas while vortexing. 3. Samples were placed in a vacuum desiccator for 2 hours to remove residual solvent and protected from light. 4. Multi-lamellar vesicles (MLVs) were prepared by the method developed by Bangham and Standish (1965). After samples were removed from the vacuum desiccator, they were immediately resuspended in 1 ml of diffraction buffer warmed to room temperature and vortexed for 3 minutes to form MLVs.
# This assay is based on the principle of the oxidative capacity of lipid peroxides to convert I2 to I3^− (triiodide), which can be measured photometrically at 365 nm (el-Saadani et al., 1989). This assay is sensitive to peroxide concentrations as low as 10 μM.
# 1. Samples were placed in a water bath set at 37° C. throughout the experiment. 2. Aliquots of a sample (20 μl) were extracted at a 48 hour time point as described in the table below.
# 3. After combining the samples with CHOD active reagent and the diffraction buffer, test samples were incubated for about 6 hours in darkness at ambient temperature. 4. The absorbance of a sample was measured photometrically at 365 nm.
# Concentrations of lipid peroxides were calculated by the use of the molar absorptivity of I3^− measured at 365 nm (ε=2.46±0.25×10^4M^−1 cm^−1). This value was determined by adding known concentrations of […] to the CHOD reagent. A stoichiometric relationship (slope=1.02) was observed between the amount of organic peroxides assayed and the concentration of I3^− produced.
# human LDL [4] = experiment: Conjugated diene formation in isolated human LDL (CuSO4-induced oxidation); format: biochemical; details: 100 nM
# Method: (§1) The effects of the compounds on lipid peroxidation were tested in isolated human LDL. Human venous blood was collected into vacutainer tubes containing K3EDTA after a 12-hour fast. Plasma was immediately separated by centrifugation at 3000 g for 25 minutes. LDL was obtained from plasma by ultracentrifugation using a procedure similar to that reported by Chung et al, 1986 using discontinuous KBr gradient. The purity of the freshly isolated LDL was assessed by SDS-PAGE using the procedure of Laemmli, 1970.
# (§2) The extent of oxidation was measured for the LDL in the absence and presence of the drugs over a range of concentrations. Malondialdehyde (MDA), a product of lipid oxidation, was measured by the reaction of this aldehyde with thiobarbituric acid in an acid medium to form a stable chromogen, referred to as thiobarbituric-acid-reactive-substances (TBARS). Purified LDL (100 μg protein/ml) was incubated for 30 minutes with either vehicle or an NSAID at various concentrations followed by addition of 50 μM CuSO4 at 37° C. Conjugated diene formation was measured by continuously monitoring the change in absorbance at 234 nm on a Beckman DU 640 spectrophotometer, as described by Esterbauer et al., 1985. Stock solutions were tested for iron contamination, which can contribute independently to lipid peroxidation and assay artifacts.
# human LDL [5] = experiment: MDA formation (TBARS) in isolated human LDL; format: biochemical
# Method: as §1, §2
# [6] = F2-isoprostane formation from DAPC lipid vesicles by GC/NCI-MS; format: biochemical; details: 100 nM; vehicle 140±25 ng/100 μl; mean ± S.D.
# Method: F2-Isoprostanes are derived principally from the formation of positioned peroxyl radical isomers of arachidonic acid, endocyclization to protaglandin G2-like structures, and reduction to PGF2-like compounds. Total levels of F2-isoprostanes, in DAPC lipid vesicles prepared in the presence of vehicle or drug, were measured by GC-MS with negative chemical ionization as described by Walter et al., 2000. Peroxidation of lipids occurred over time in the absence of any exogenous initiators at 37° C. F2-Isoprostane formation was also measured independently using mass spectroscopy in a blinded study at the Antioxidant Research Laboratory, Tufts University, Boston, Mass.
# [7] = Oxygen Radical Absorption Capacity (ORAC) of human plasma; format: biochemical; details: 1.0 μM
# Method: The comparative effect of COX-2 selective agents on the antioxidant capacity of human plasma was assessed using the Oxygen Radical Absorption Capacity (ORAC) assay. This assay was carried out according to the method of Huang et al., 2002 with fresh plasma using a microplate fluorescence reader in 96 well format with the excitation and emission filters set at 485 and 530 nm respectively.
# [8] = format: physicochemical
# Method: (§3) Determination of aqueous solubility/dispersibility. 30.13 mg of 3 was added to 1 mL of USP-purified water. The sample was rotated for 2 hours, then centrifuged for 5 minutes. After centrifuging, solid was visible in the bottom of the tube. A 125-μL aliquot of the solution was then diluted to 25 mL. The sample was analyzed by UV/Vis spectroscopy at 436 nm, and the absorbance was compared to a standard curve compiled from 4 standards of known concentration. The concentration of the original supernatant was calculated to be 2.85 mg/mL and the absorptivity was 36.94 AU*mL/cm*mg. Slight error may have been introduced by the small size of the original aliquot.
# as §3, with “Next, 30.80” for “Determination of aqueous solubility/dispersibility. 30.13”, “9” for “3”, “411” for “436”, “The concentration of the original supernatant was calculated to be 2.85 mg/mL and the absorptivity was 36.94 AU*mL/cm*mg.” left out
# [9] = tested on: superoxide anion generation from phorbol-ester (PMA)-stimulated PMNs; experiment: Direct superoxide anion scavenging by EPR spectroscopy (DEPMPO spin trap), isolated human neutrophil assay; format: cell-based
# Method: Leukocyte Isolation and Preparation. Human polymorphonuclear leukocytes (PMNs) were isolated from freshly sampled venous blood of a single volunteer by Percoll density gradient centrifugation as described previously. Briefly, each 10 mL of whole blood was mixed with 0.8 mL of 0.1 M EDTA and 25 mL of saline. The diluted blood was then layered over 9 mL of Percoll at a specific density of 1.080 g/mL. After centrifugation at 400×g for 20 min at 20° C., the plasma, mononuclear cell, and Percoll layers were removed. Erythrocytes were subsequently lysed by addition of 18 mL of ice-cold water for 30 s, followed by 2 mL of 10×PIPES buffer (25 mM PIPES, 110 mM NaCl, and 5 mM KCl, titrated to pH 7.4 with NaOH). Cells were then pelleted at 4° C., the supernatant was decanted, and the procedure was repeated. After the second hypotonic cell lysis, cells were washed twice with PAG buffer [PIPES buffer containing 0.003% human serum albumin (HSA) and 0.1% glucose]. Afterward, PMNs were counted by light microscopy on a hemocytometer. The isolation yielded PMNs with a purity of >95%. The final pellet was then suspended in PAG-CM buffer (PAG buffer with 1 mM CaCl2 and 1 mM MgCl2).
# EPR Measurements. All EPR measurements were performed using a Bruker ER 300 EPR spectrometer operating at X-band with a TM110 cavity as previously described. The microwave frequency was measured with a Model 575 microwave counter (EIP Microwave, Inc., San Jose, Calif.). To measure superoxide anion ? generation from phorbol-ester (PMA)-stimulated PMNs, EPR spin-trapping studies were performed using the spin trap DEPMPO (Oxis, Portland, Oreg.) at 10 mM. 1×10^6 PMNs were stimulated with PMA (1 ng/mL) and loaded into capillary tubes for EPR measurements. To determine the radical scavenging ability of 3 and 9 in aqueous and ethanolic formulations, PMNs were pre-incubated for 5 minutes with test compound, followed by PMA stimulation.
# Instrument settings used in the spin-trapping experiments were as follows: modulation amplitude, 0.32 G; time constant, 0.16 s; scan time, 60 s; modulation frequency, 100 kHz; microwave power, 20 milliwatts; and microwave frequency, 9.76 GHz. The samples were placed in a quartz EPR flat cell, and spectra were recorded. The component signals in the spectra were identified and quantified as reported previously.
# [10] = alone at 250 nM, 48 hour incubation at 37° C.
molecule,measurement,setting,value
"CC1=C(/C=C/C(C)=C/C=C/C(C)=C/C=C/C=C(C)/C=C/C=C(C)/C=C/C2=C(C)C(=O)[C@@H](O)CC2(C)C)C(C)(C)C[C@H](O)C1=O [Astaxanthin, 3,3′-dihydroxy-β,β′-carotene-4,4′-dione]",decrease in lipid peroxidation vs control,[1]; added together with rofecoxib at equimolar concentration (250 nM),6.5%
same,decrease in lipid peroxidation vs control,[1]; [10],4.4%
same,% increase (+) or decrease (−) of lipid peroxide levels compared to control,"[2]; 24 Hour, carotenoid 1 μM",−6.9%^a
same,Lipid Peroxide Levels,"[2]; 24 Hour, carotenoid 1 μM, control 218 ± 20",203 ± 17 µM
same,% increase (+) or decrease (−) of lipid peroxide levels compared to control,"[2]; 24 Hour, carotenoid 10 μM",−22.5%
same,Lipid Peroxide Levels,"[2]; 24 Hour, carotenoid 10 μM, control 218 ± 20",169 ± 7 µM
same,% increase (+) or decrease (−) of lipid peroxide levels compared to control,"[2]; 48 Hour, carotenoid 1 μM",−12.6%^a
same,Lipid Peroxide Levels,"[2]; 48 Hour, carotenoid 1 μM, control 572 ± 76",500 ± 57 µM
same,% increase (+) or decrease (−) of lipid peroxide levels compared to control,"[2]; 48 Hour, carotenoid 10 μM",−40.7%^a
same,Lipid Peroxide Levels,"[2]; 48 Hour, carotenoid 10 μM, control 572 ± 76",339 ± 42 µM
same,antioxidant/pro-oxidant effect,[2]; C/P 0.2,strong antioxidant effect
same,antioxidant/prooxidant activity,[3],the only antioxidant
CS(=O)(=O)c1ccc(C2=C(c3ccccc3)C(=O)OC2)cc1 [rofecoxib],decrease in lag time for human LDL conjugated diene formation,human LDL [4],42.8±1.5%
same,effect on MDA levels (TBARS) in human LDL,human LDL [5],marked increases
same,effect on MDA levels (TBARS) in human LDL,"human LDL [5]; 50 nM, 10-fold lower than comparison drugs",significant increase
same,Levels of isoprostanes,[6],190±18 ng/100 μl
same,reduction of ORAC value,[7]; fresh human plasma,34%
same,ORAC value (AUC),[7]; vehicle 28.1±1.2,18.6±1.3
same,increase in lipid peroxide levels vs control,[1]; [10],7.4%
"β,ε-carotenyl 3,3′-disuccinate sodium salt [Lutein Disuccinate Sodium Salt]",aqueous solubility/dispersibility,[8],2.85 mg/mL
same,Mean (% inhibition) of superoxide anion signal,"[9]; 40% EtOH, 0.1 mM, listed as disodium disuccinate derivative of natural source lutein, sodium salt",did not significantly increase scavenging
same,Mean (% inhibition) of superoxide anion signal,"[9]; 40% EtOH, 0.1 mM, sodium salt",5.0%
same,Mean (% inhibition) of superoxide anion signal,"[9]; Water, 0.1 mM",0%
same,Mean (% inhibition) of superoxide anion signal,"[9]; Water, 1.0 mM",13.0%
same,Mean (% inhibition) of superoxide anion signal,"[9]; Water, 3.0 mM",61.7%
same,Mean (% inhibition) of superoxide anion signal,"[9]; Water, 5.0 mM, listed as disodium disuccinate derivative of natural source lutein, sodium salt",~75%
same,Mean (% inhibition) of superoxide anion signal,"[9]; Water, 5.0 mM, listed as disuccinate lutein sodium salt, sodium salt",75%
same,Mean (% inhibition) of superoxide anion signal,"[9]; Water, 5.0 mM, sodium salt",74.7%
